Key:
[1] = target: Apoptosis regulator Bcl-2 (Homo sapiens, UniProt P10415); experiment: Binding affinity to Bcl-2 by competitive fluorescence polarization assay
MDA-MB-435 [2] = experiment: Cytotoxicity against human MDA-MB-435 cells expressing Bcl-xL, Bcl-2 and Mcl-1 at 100 ug/ml after 72 hrs by MTT assay relative to control; format: functional; conditions: MDA-MB-435, 72 h, read-out: GI
Raji [3] = experiment: Cytotoxicity against human Raji cells expressing Bcl-xL, Bcl-2 and Mcl-1 at 100 ug/ml after 72 hrs by MTT assay relative to control; format: functional; conditions: read-out: GI
Bcl-2-like protein 1 = Bcl-2-like protein 1 (Homo sapiens, UniProt Q07817); experiment: Binding affinity to Bcl-xL by competitive fluorescence polarization assay
[4] = target: Induced myeloid leukemia cell differentiation protein Mcl-1 (Homo sapiens, UniProt Q07820); experiment: Binding affinity to Mcl-1 by competitive fluorescence polarization assay
MDA-MB-435 [5] = experiment: Cytotoxicity against human MDA-MB-435 cells expressing Bcl-xL, Bcl-2 and Mcl-1 after 72 hrs by MTT assay; format: functional, cell-based; conditions: MDA-MB-435, 72 h
HCT-116 = experiment: Cytotoxicity against human HCT116 cells expressing Bcl-xL, Bcl-2 and Mcl-1 after 72 hrs by MTT assay; format: functional, cell-based; conditions: HCT-116, 72 h
Raji [6] = experiment: Cytotoxicity against human Raji cells expressing Bcl-xL, Bcl-2 and Mcl-1 after 72 hrs by MTT assay; format: functional, cell-based

Apoptosis regulator Bcl-2, sequence (P10415 whole entry): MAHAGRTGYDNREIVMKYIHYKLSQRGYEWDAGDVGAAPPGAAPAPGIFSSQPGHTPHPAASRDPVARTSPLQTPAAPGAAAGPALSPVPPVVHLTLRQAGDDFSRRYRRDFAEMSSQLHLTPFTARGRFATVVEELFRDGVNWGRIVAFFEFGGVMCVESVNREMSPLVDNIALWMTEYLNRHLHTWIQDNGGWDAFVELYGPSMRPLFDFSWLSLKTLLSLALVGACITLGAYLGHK
Induced myeloid leukemia cell differentiation protein Mcl-1, sequence (Q07820 whole entry): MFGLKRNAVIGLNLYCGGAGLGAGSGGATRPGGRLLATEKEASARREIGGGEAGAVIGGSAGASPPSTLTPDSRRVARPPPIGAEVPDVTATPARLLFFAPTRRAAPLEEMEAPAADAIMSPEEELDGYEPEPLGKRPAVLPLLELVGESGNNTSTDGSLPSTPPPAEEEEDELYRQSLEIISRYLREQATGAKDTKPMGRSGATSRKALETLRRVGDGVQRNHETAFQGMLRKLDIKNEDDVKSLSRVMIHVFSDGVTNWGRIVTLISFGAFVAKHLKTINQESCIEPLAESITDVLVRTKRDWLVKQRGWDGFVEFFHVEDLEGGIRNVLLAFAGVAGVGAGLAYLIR
Bcl-2-like protein 1, sequence (Q07817 whole entry): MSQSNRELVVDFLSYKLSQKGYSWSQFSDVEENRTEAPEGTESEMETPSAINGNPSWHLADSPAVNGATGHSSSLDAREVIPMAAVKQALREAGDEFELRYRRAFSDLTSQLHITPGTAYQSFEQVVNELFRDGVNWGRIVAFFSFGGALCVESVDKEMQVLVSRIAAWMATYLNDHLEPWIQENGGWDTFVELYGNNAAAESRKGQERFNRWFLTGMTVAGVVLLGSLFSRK

Row | SMILES | Ki [1] [µM] | inhibition of growth at 100 µg/mL (MDA-MB-435 [2]) [%] | inhibition of growth at 100 µg/mL (Raji [3]) [%] | Ki (Bcl-2-like protein 1) [µM] | Ki [4] [µM] | IC50 (MDA-MB-435 [5]) [µM] | IC50 (HCT-116) [µM] | IC50 (Raji [6]) [µM]
1 | CC(=O)N[C@@H](CC(C)C)C(=O)Nc1ccc(C(=O)NS(=O)(=O)c2ccc(NCCSc3ccccc3)c([N+](=O)[O-])c2)cc1 | 3.78 | 25.6 | 58.3 | 5.82 | 1.8 | – | – | –
2 | CC[C@H](C)[C@H](NC(C)=O)C(=O)Nc1ccc(C(=O)NS(=O)(=O)c2ccc(NCCSc3ccccc3)c([N+](=O)[O-])c2)cc1 | 3.38 | 13.5 | 40.9 | 4.84 | 2.29 | – | – | –
3 | CSCC[C@H](NC(C)=O)C(=O)Nc1ccc(C(=O)NS(=O)(=O)c2ccc(NCCSc3ccccc3)c([N+](=O)[O-])c2)cc1 | 3.52 | 16 | 40.1 | 3.91 | 3.11 | – | – | –
4 | CC(=O)N[C@@H](Cc1ccccc1)C(=O)Nc1ccc(C(=O)NS(=O)(=O)c2ccc(NCCSc3ccccc3)c([N+](=O)[O-])c2)cc1 | 3.39 | 36.6 | 26.8 | 3.42 | 3.11 | – | – | –
5 | CC(=O)N[C@@H](Cc1c[nH]c2ccccc12)C(=O)Nc1ccc(C(=O)NS(=O)(=O)c2ccc(NCCSc3ccccc3)c([N+](=O)[O-])c2)cc1 | 0.83 | 9.36 | 31.8 | 6.45 | 4.03 | – | – | –
6 | CC(=O)N[C@H](C(=O)Nc1ccc(C(=O)NS(=O)(=O)c2ccc(NCCSc3ccccc3)c([N+](=O)[O-])c2)cc1)C(C)C | 9.49 | 6.33 | 8.85 | 16.4 | 3.27 | – | – | –
7 | O=C(Nc1ccc(C(=O)NS(=O)(=O)c2ccc(NCCSc3ccccc3)c([N+](=O)[O-])c2)cc1)c1ccccc1 | 1.67 | – | – | 2.51 | 4.16 | 59.9 | 136 | 39.8
8 | O=C(NS(=O)(=O)c1ccc(NCCSc2ccccc2)c([N+](=O)[O-])c1)c1ccc(NC(=O)c2ccccc2F)cc1 | 1.09 | – | – | 1.71 | 3.02 | 48.1 | 40 | 32.2
9 | O=C(Nc1ccc(C(=O)NS(=O)(=O)c2ccc(NCCSc3ccccc3)c([N+](=O)[O-])c2)cc1)c1cccc(F)c1 | 1.4 | – | – | 2.08 | 3.09 | 59.5 | > 168 | 39.4
10 | O=C(Nc1ccc(C(=O)NS(=O)(=O)c2ccc(NCCSc3ccccc3)c([N+](=O)[O-])c2)cc1)c1ccc(F)cc1 | 0.93 | – | – | 1.94 | 2.54 | 57.5 | 78.9 | 38.6
11 | O=C(NS(=O)(=O)c1ccc(NCCSc2ccccc2)c([N+](=O)[O-])c1)c1ccc(NC(=O)c2ccccc2Cl)cc1 | – | – | – | – | – | 69.9 | > 164 | 41.2
12 | O=C(Nc1ccc(C(=O)NS(=O)(=O)c2ccc(NCCSc3ccccc3)c([N+](=O)[O-])c2)cc1)c1cccc(Cl)c1 | – | – | – | – | – | 46.7 | 33.1 | 37.5
13 | O=C(Nc1ccc(C(=O)NS(=O)(=O)c2ccc(NCCSc3ccccc3)c([N+](=O)[O-])c2)cc1)c1ccc(Cl)cc1 | – | – | – | – | – | 49.9 | 43.4 | 37.5
14 | Cc1ccccc1C(=O)Nc1ccc(C(=O)NS(=O)(=O)c2ccc(NCCSc3ccccc3)c([N+](=O)[O-])c2)cc1 | – | – | – | – | – | 47.6 | 161 | 38.8
15 | Cc1cccc(C(=O)Nc2ccc(C(=O)NS(=O)(=O)c3ccc(NCCSc4ccccc4)c([N+](=O)[O-])c3)cc2)c1 | – | – | – | – | – | > 169 | 169 | 92.6
16 | Cc1ccc(C(=O)Nc2ccc(C(=O)NS(=O)(=O)c3ccc(NCCSc4ccccc4)c([N+](=O)[O-])c3)cc2)cc1 | – | – | – | – | – | 53 | 48.6 | 38.8
17 | O=C(Nc1ccc(C(=O)NS(=O)(=O)c2ccc(NCCSc3ccccc3)c([N+](=O)[O-])c2)cc1)c1ccc(Br)cc1 | 0.76 | – | – | 1.5 | 4.1 | 39.5 | 10.5 | 35
18 | COc1ccc(C(=O)Nc2ccc(C(=O)NS(=O)(=O)c3ccc(NCCSc4ccccc4)c([N+](=O)[O-])c3)cc2)cc1 | 0.8 | – | – | 1.27 | 3.11 | 36.1 | 14.6 | 22.9
19 | O=C(NS(=O)(=O)c1ccc(NCCSc2ccccc2)c([N+](=O)[O-])c1)c1ccc(NS(=O)(=O)c2ccccc2)cc1 | 15.2 | – | – | 2.29 | 7.22 | > 163 | 163 | > 163
20 | CN(C)CC[C@H](CSc1ccccc1)Nc1ccc(S(=O)(=O)NC(=O)c2ccc(N3CCN(Cc4ccccc4-c4ccc(Cl)cc4)CC3)cc2)cc1[N+](=O)[O-] [ABT 737] | – | 55.4 | 42.5 | – | – | > 123 | 47.7 | 93.5
